Reference: patent publication US20240025862A1, “SUBSTITUTED N-PHENYLURACILS AND SALTS THEREOF, AND USE THEREOF AS HERBICIDAL ACTIVE SUBSTANCES” (Bayer Aktiengesellschaft, priority 2020, published 2024)
Values belong to the compound of their own block, whether it stands above or below them.

Key:
Format in all cases: in vivo
[1] = system: Abutilon theophrasti (ABUTH); experiment: Post-emergence herbicidal action, greenhouse pot test; details: rated visually after about 3 weeks vs untreated controls, 100% = plants have died
Summary of the method: (§1)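 Activity was scored by eye about 3 weeks after treatment against untreated plants, where 100% means dead plants and 0% means no difference. Plants at the one-leaf stage received a foliar spray of WP or EC formulations in water plus 0.5% additive (600 l/ha, up to 20 g/ha). Plants were grown in sandy loam pots in a greenhouse for 2–3 weeks before spraying.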

[2] = system: Amaranthus retroflexus (AMARE); experiment: as above; details: rated visually after about 3 weeks vs untreated controls, 100% = plants have died
Summary of the method: as §1

Avena fatua (AVEFA) [3] = experiment: as above; details: 20 g/ha, rated visually after about 3 weeks vs untreated controls, 100% = plants have died
Summary of the method: as §1

Hordeum murinum (HORMU) = experiment: as above; details: rated visually after about 3 weeks vs untreated controls, 100% = plants have died
Summary of the method: as §1

Lolium rigidum (LOLRI) [4] = experiment: as above; details: dosage 20 g/ha
Summary of the method: as §1

[5] = system: Pharbitis purpurea (PHBPU); experiment: as above
Summary of the method: as §1

[6] = system: Polygonum convolvulus (POLCO); experiment: as above
Summary of the method: as §1

Stellaria media (STEME) = experiment: as above
Summary of the method: as §1

Veronica persica (VERPE) [7] = experiment: as above
Summary of the method: as §1

Viola tricolor (VIOTR) = experiment: as above
Summary of the method: as §1

[8] = system: Alopecurus myosuroides (ALOMY); experiment: Post-emergence herbicidal action, greenhouse pot test (also comparative test C); details: rated visually after about 3 weeks vs untreated controls, 100% = plants have died
Summary of the method: (§2)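 Greenhouse pot plants in sandy loam were sprayed post-emergence at the one-leaf stage (2–3 weeks after sowing) with WP or EC formulations plus 0.5% additive at 600 l/ha water. Activity was rated visually after about 3 weeks versus untreated controls (100% = dead, 0% = like control); rates were 20 g/ha or less, and 5 g/ha or less in the comparative test.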

[9] = system: Echinochloa crus-galli (ECHCG); experiment: as above
Summary of the method: as §2

[10] = system: Matricaria inodora (MATIN); experiment: as above
Summary of the method: as §2

Setaria viridis (SETVI) = experiment: as above
Summary of the method: as §2

Brassica napus (BRSNW) = experiment: Post-emergence crop plant compatibility, greenhouse pot test; details: 1.25 g/ha, vs untreated controls
Summary of the method: (§3)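 Compatibility was scored as visual % effect against untreated controls about 3 weeks after spraying green plant parts at the one-leaf stage. Formulations (WP/EC) were applied in aqueous form with 0.5% additive, 600 l/ha, to greenhouse-grown pot plants.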

[11] = system: Triticum aestivum (TRZAS); experiment: as above; details: 1.25 g/ha, vs untreated controls
Summary of the method: as §3

Zea mays (ZEAMX) [12] = experiment: as above; details: 1.25 g/ha, vs untreated controls
Summary of the method: as §3

Oryza sativa (ORYSA) = experiment: Post-emergence crop plant compatibility, greenhouse pot test (also comparative test C); details: vs untreated controls
Summary of the method: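 Visual damage versus untreated plants (0% = like control, 100% = plants died) was scored about 3 weeks after a post-emergence spray in greenhouse pots. Treatment: one-leaf stage, WP or EC in water at 600 l/ha with 0.5% additive; a/b/c mark different dosages on the same crop.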

[13] = system: Abutilon theophrasti (ABUTH); experiment: Pre-emergence herbicidal action, greenhouse pot test; details: scored after about 3 weeks
From the text: (§4) Seeds of monocotyledonous and dicotyledonous weed plants and crop plants were placed in plastic or organic planting pots and covered with soil. The compounds of the invention, formulated in the form of wettable powders (WP) or as emulsion concentrates (EC), were then applied to the surface of the covering soil as aqueous suspension or emulsion with addition of 0.5% additive at a water application rate equivalent to 600 l/ha (converted). After the treatment, the pots were placed in a greenhouse and kept under good growth conditions for the test plants. After about 3 weeks, the effect of the preparations was scored visually in comparison with untreated controls as percentages. For example, 100% activity=the plants have died, 0% activity=like control plants.
(§5) Tables B1 to B10 below show the effects of selected compounds of the general formula (I) according to Tables I.1 to I.33 on various harmful plants and at an application rate corresponding to 80 g/ha and less, which were obtained by the experimental method specified above. The appendices “a”, “b” and “c” give differentiation by different dosage with otherwise the same harmful plants tested.

[14] = system: Alopecurus myosuroides (ALOMY); experiment: as above; details: scored after about 3 weeks
From the text: as §4, §5

[15] = system: Amaranthus retroflexus (AMARE); experiment: as above; details: scored after about 3 weeks
From the text: as §4, §5

Avena fatua (AVEFA) [16] = experiment: as above; details: 80 g/ha, scored after about 3 weeks
From the text: as §4, §5

[17] = system: Digitaria sanguinalis (DIGSA); experiment: as above; details: scored after about 3 weeks
From the text: as §4, §5

[18] = system: Echinochloa crus-galli (ECHCG); experiment: as above; details: scored after about 3 weeks
From the text: as §4, §5

Lolium rigidum (LOLRI) [19] = experiment: as above; details: scored after about 3 weeks
From the text: as §4, §5

[20] = system: Matricaria inodora (MATIN); experiment: as above; details: scored after about 3 weeks
From the text: as §4, §5

[21] = system: Pharbitis purpurea (PHBPU); experiment: as above; details: scored after about 3 weeks
From the text: as §4, §5

Veronica persica (VERPE) [22] = experiment: as above; details: scored after about 3 weeks
From the text: as §4, §5

Glycine max (GLXMA) = experiment: Pre-emergence crop plant compatibility, greenhouse pot test; details: 20 g/ha
From the text: as §4
(§6) The observed effects on selected crop plants are reported here in comparison to the untreated controls (values in %).

Zea mays (ZEAMX) [23] = experiment: as above; details: 20 g/ha
From the text: as §4, §6

- Post-emergence action against BRSNW (crop plant compatibility) (Brassica napus (BRSNW)): 20%
- Post-emergence action against TRZAS (crop plant compatibility) [11]: 20%
- Post-emergence action against ZEAMX (crop plant compatibility) (Zea mays (ZEAMX) [12]): 10%
- Post-emergence action against ORYSA (crop plant compatibility) (Oryza sativa (ORYSA); 1.25 g/ha): 20%
SMILES: COCCOCCOC(=O)COc1ccccc1Sc1cc(-n2c(=O)cc(C(F)(F)F)n(C)c2=O)c(F)cc1Cl [I.1-23]
- Post-emergence action at 1.25 g/ha against ABUTH in % [1]: 100%
- Post-emergence action at 5 g/ha against ABUTH in % [1]: 100%
- Post-emergence action at 20 g/ha against ABUTH in % ([1]; 20 g/ha): 100%
- Post-emergence action at 1.25 g/ha against AMARE in % [2]: 100%
- Post-emergence action at 5 g/ha against AMARE in % [2]: 100%
- Post-emergence action at 20 g/ha against AMARE in % ([2]; 20 g/ha): 100%
- Post-emergence action at 20 g/ha against AVEFA in % (Avena fatua (AVEFA) [3]): 80%
- Post-emergence action at 5 g/ha against HORMU in % (Hordeum murinum (HORMU); 5 g/ha): 80%
- Post-emergence action at 20 g/ha against HORMU in % (Hordeum murinum (HORMU); 20 g/ha): 100%
- Post-emergence action against LOLRI in % (Lolium rigidum (LOLRI) [4]): 80%
- Post-emergence action against PHBPU in % ([5]; dosage 1.25 g/ha): 100%
- Post-emergence action against PHBPU in % ([5]; dosage 5 g/ha): 100%
- Post-emergence action against PHBPU in % ([5]; dosage 20 g/ha): 100%
- Post-emergence action against POLCO in % ([6]; dosage 1.25 g/ha): 100%
- Post-emergence action against POLCO in % ([6]; dosage 5 g/ha): 100%
- Post-emergence action against POLCO in % ([6]; dosage 20 g/ha): 100%
- Post-emergence action against STEME (Stellaria media (STEME); 1.25 g/ha): 80%
- Post-emergence action against STEME (Stellaria media (STEME); 5 g/ha): 100%
- Post-emergence action against STEME (Stellaria media (STEME); 20 g/ha): 100%
- Post-emergence action against VERPE (Veronica persica (VERPE) [7]; 1.25 g/ha): 100%
- Post-emergence action against VERPE (Veronica persica (VERPE) [7]; 5 g/ha): 100%
- Post-emergence action against VERPE (Veronica persica (VERPE) [7]; 20 g/ha): 100%
- Post-emergence action against VIOTR (Viola tricolor (VIOTR); 1.25 g/ha): 100%
- Post-emergence action against VIOTR (Viola tricolor (VIOTR); 5 g/ha): 100%
- Post-emergence action against VIOTR (Viola tricolor (VIOTR); 20 g/ha): 100%
- Post-emergence action at 5 g/ha against ALOMY in % [8]: 90%
- Post-emergence action at 20 g/ha against ALOMY in % ([8]; 20 g/ha): 90%
- Post-emergence action at 1.25 g/ha against ECHCG in % ([9]; 1.25 g/ha, rated visually after about 3 weeks vs untreated controls, 100% = plants have died): 90%
- Post-emergence action against ECHCG in % ([9]; dosage 5 g/ha): 100%
- Post-emergence action against ECHCG in % ([9]; dosage 20 g/ha): 100%
- Post-emergence action against MATIN in % ([10]; dosage 1.25 g/ha): 80%
- Post-emergence action against MATIN in % ([10]; dosage 5 g/ha): 100%
- Post-emergence action against MATIN in % ([10]; dosage 20 g/ha): 100%
- Post-emergence action against SETVI (Setaria viridis (SETVI); 20 g/ha): 100%
- Post-emergence action against SETVI in % (Setaria viridis (SETVI); dosage 1.25 g/ha): 100%
- Post-emergence action against SETVI in % (Setaria viridis (SETVI); dosage 5 g/ha): 100%

SMILES: COCCOCCOC(=O)COc1ccccc1Oc1cc(-n2c(=O)cc(C(F)(F)F)n(C)c2=O)c(F)cc1Cl [I.7-23]
- Post-emergence action at 1.25 g/ha against ABUTH in % [1]: 100%
- Post-emergence action at 5 g/ha against ABUTH in % [1]: 100%
- Post-emergence action at 1.25 g/ha against AMARE in % [2]: 100%
- Post-emergence action at 5 g/ha against AMARE in % [2]: 100%
- Post-emergence action against PHBPU in % ([5]; dosage 5 g/ha): 100%
- Post-emergence action against POLCO in % ([6]; dosage 5 g/ha): 100%
- Post-emergence action against VERPE (Veronica persica (VERPE) [7]; 1.25 g/ha): 90%
- Post-emergence action against VERPE (Veronica persica (VERPE) [7]; 5 g/ha): 100%
- Post-emergence action against VIOTR (Viola tricolor (VIOTR); 1.25 g/ha): 100%
- Post-emergence action against VIOTR (Viola tricolor (VIOTR); 5 g/ha): 100%
- Post-emergence action at 1.25 g/ha against ALOMY in % ([8]; 1.25 g/ha): 80%
- Post-emergence action at 5 g/ha against ALOMY in % [8]: 100%
- Post-emergence action against ECHCG in % ([9]; dosage 5 g/ha): 100%
- Post-emergence action against MATIN in % ([10]; dosage 1.25 g/ha): 90%
- Post-emergence action against MATIN in % ([10]; dosage 5 g/ha): 100%
- Post-emergence action against SETVI in % (Setaria viridis (SETVI); dosage 1.25 g/ha): 100%
- Post-emergence action against SETVI in % (Setaria viridis (SETVI); dosage 5 g/ha): 100%
- Post-emergence action against BRSNW (crop plant compatibility) (Brassica napus (BRSNW)): 20%
- Post-emergence action against TRZAS (crop plant compatibility) [11]: 10%
- Post-emergence action against ORYSA (crop plant compatibility) (Oryza sativa (ORYSA); 1.25 g/ha): 10%
- Post-emergence action against ORYSA (crop plant compatibility) (Oryza sativa (ORYSA); 5 g/ha): 20%
- Pre-emergence action against ABUTH in % ([13]; 20 g/ha): 100%
- Pre-emergence action against ABUTH in % ([13]; 80 g/ha): 100%
- Pre-emergence action against ALOMY in % ([14]; 20 g/ha): 90%
- Pre-emergence action against ALOMY in % ([14]; 80 g/ha): 100%
- Pre-emergence action against AMARE in % ([15]; 20 g/ha): 100%
- Pre-emergence action against AMARE in % ([15]; 80 g/ha): 100%
- Pre-emergence action against AVEFA in % (Avena fatua (AVEFA) [16]): 90%
- Pre-emergence action against DIGSA in % ([17]; 20 g/ha): 100%
- Pre-emergence action against DIGSA in % ([17]; 80 g/ha): 100%
- Pre-emergence action against ECHCG in % ([18]; 20 g/ha): 80%
- Pre-emergence action against ECHCG in % ([18]; 80 g/ha): 90%
- Pre-emergence action against LOLRI in % (Lolium rigidum (LOLRI) [19]; 20 g/ha): 90%
- Pre-emergence action against LOLRI in % (Lolium rigidum (LOLRI) [19]; 80 g/ha): 100%
- Pre-emergence action against MATIN in % ([20]; 20 g/ha): 100%
- Pre-emergence action against MATIN in % ([20]; 80 g/ha): 100%
- Pre-emergence action against PHBPU in % ([21]; 20 g/ha): 100%
- Pre-emergence action against PHBPU in % ([21]; 80 g/ha): 100%
- Pre-emergence action against VERPE in % (Veronica persica (VERPE) [22]; 20 g/ha): 100%
- Pre-emergence action against VERPE in % (Veronica persica (VERPE) [22]; 80 g/ha): 100%
- Pre-emergence action against GLXMA in % (Glycine max (GLXMA)): 10%
- Pre-emergence action against ZEAMX in % (Zea mays (ZEAMX) [23]): 20%
